Laboratory results reported in patent US20130121994A1, “TRIAZOLOPYRIDINE DERIVATIVES” (BAYER INTELLECTUAL PROPERTY GMBH, priority 2009, published 2013).

Target: T1, human kinase Mps-1 (Homo sapiens, UniProt P33981)
T1 construct: N-terminally GST-tagged human full length recombinant Mps-1 kinase; GST (N); purchased Invitrogen, Karslruhe, Germany PV4071
T1 sequence (P33981 1-857): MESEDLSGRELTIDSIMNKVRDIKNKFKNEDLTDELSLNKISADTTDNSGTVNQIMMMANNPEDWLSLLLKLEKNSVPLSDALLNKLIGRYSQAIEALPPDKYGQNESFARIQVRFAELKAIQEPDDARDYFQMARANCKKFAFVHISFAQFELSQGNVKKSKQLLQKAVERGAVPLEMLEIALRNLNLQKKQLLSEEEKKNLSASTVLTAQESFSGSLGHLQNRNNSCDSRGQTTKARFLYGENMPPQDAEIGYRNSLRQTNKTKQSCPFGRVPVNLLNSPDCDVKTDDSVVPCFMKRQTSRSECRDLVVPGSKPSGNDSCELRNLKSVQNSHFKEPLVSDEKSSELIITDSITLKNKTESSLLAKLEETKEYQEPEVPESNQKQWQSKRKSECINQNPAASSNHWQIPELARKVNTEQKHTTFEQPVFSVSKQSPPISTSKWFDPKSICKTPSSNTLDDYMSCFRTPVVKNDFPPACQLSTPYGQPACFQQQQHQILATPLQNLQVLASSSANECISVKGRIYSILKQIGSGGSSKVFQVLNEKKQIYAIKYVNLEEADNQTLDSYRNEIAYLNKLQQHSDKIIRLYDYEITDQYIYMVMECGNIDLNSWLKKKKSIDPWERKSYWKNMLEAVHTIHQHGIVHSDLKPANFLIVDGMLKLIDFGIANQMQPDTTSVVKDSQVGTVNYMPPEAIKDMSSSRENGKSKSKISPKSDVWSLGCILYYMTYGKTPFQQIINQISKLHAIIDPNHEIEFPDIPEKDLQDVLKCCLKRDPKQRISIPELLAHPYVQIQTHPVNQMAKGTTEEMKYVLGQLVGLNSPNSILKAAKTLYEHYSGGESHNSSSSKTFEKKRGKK
Experiment: Mps-1 kinase assay (HTRF)
Format: biochemical

Compound	IC50 [nM]
CC(F)(F)CNC(=O)c1cccc(-c2ccc3nc(Nc4ccccc4C#N)nn3c2)c1F [Example 11.066, 3-{2-[(2-cyanophenyl)amino][1,2,4]triazolo[1,5-a]pyridin-6-yl}-N-(2,2-difluoropropyl)-2-fluorobenzamide]	26.7
N#Cc1ccccc1Nc1nc2ccc(-c3cccc(C(=O)NCCC(F)(F)F)c3F)cn2n1 [Example 11.067, 3-{2-[(2-cyanophenyl)amino][1,2,4]triazolo[1,5-a]pyridin-6-yl}-2-fluoro-N-(3,3,3-trifluoropropyl)benzamide]	23.9
COCCNC(=O)c1cccc(-c2ccc3nc(Nc4ccccc4C#N)nn3c2)c1 [Example 11.068, 3-{2-[(2-cyanophenyl)amino][1,2,4]triazolo[1,5-a]pyridin-6-yl}-N-(2-methoxyethyl)benzamide]	24.7
N#Cc1ccccc1Nc1nc2ccc(-c3cccc(C(=O)NCC(F)F)c3F)cn2n1 [Example 11.069, 3-{2-[(2-cyanophenyl)amino][1,2,4]triazolo[1,5-a]pyridin-6-yl}-N-(2,2-difluoroethyl)-2-fluorobenzamide]	34.2
N#Cc1ccccc1Nc1nc2ccc(-c3cccc(C(=O)NCCO)c3)cn2n1 [Example 11.070, 3-{2-[(2-cyanophenyl)amino][1,2,4]triazolo[1,5-a]pyridin-6-yl}-N-(2-hydroxyethyl)benzamide]	29.7
C[C@H](O)CNC(=O)c1cccc(-c2ccc3nc(Nc4ccccc4C#N)nn3c2)c1 [Example 11.071, 3-{2-[(2-cyanophenyl)amino][1,2,4]triazolo[1,5-a]pyridin-6-yl}-N-[(2S)-2-hydroxypropyl]benzamide]	36.9
N#Cc1ccccc1Nc1nc2ccc(-c3cccc(C(=O)NCCF)c3F)cn2n1 [Example 11.072, 3-{2-[(2-cyanophenyl)amino][1,2,4]triazolo[1,5-a]pyridin-6-yl}-2-fluoro-N-(2-fluoroethyl)benzamide]	42.2
N#Cc1ccccc1Nc1nc2ccc(-c3ccc(F)c(C(=O)O)c3)cn2n1 [Example 11.073, 5-{2-[(2-cyanophenyl)amino][1,2,4]triazolo[1,5-a]pyridin-6-yl}-2-fluorobenzoic acid]	43.5
N#Cc1ccccc1Nc1nc2ccc(-c3cc(F)cc(C(=O)O)c3)cn2n1 [Example 11.074, 3-{2-[(2-cyanophenyl)amino][1,2,4]triazolo[1,5-a]pyridin-6-yl}-5-fluorobenzoic acid]	170
CCOC(=O)c1cc(F)cc(-c2ccc3nc(Nc4ccccc4C#N)nn3c2)c1 [Example 11.075, ethyl 3-{2-[(2-cyanophenyl)amino][1,2,4]triazolo[1,5-a]pyridin-6-yl}-5-fluorobenzoate]	1980
CNC(=O)c1ccc(Nc2nc3ccc(-c4cccc(C(=O)NCC(C)(C)C)c4)cn3n2)c(OC)c1 [Example 11.076, 4-[(6-{3-[(2,2-dimethylpropyl)carbamoyl]phenyl}[1,2,4]tria-zolo[1,5-a]pyridin-2-yl)amino]-3-methoxy-N-methylbenzamide]	≤ 1
COc1cc(C(=O)NC(C)(C)C)ccc1Nc1nc2ccc(-c3cccc(C(=O)NCC(F)(F)F)c3)cn2n1 [Example 11.077, N-tert-butyl-3-methoxy-4-[(6-{3-[(2,2,2-trifluoroethyl)carbamoyl]phenyl}[1,2,4]triazolo [1,5-a]pyridin-2-yl)amino]benzamide]	≤ 1
COc1cc(C(=O)NCCS(C)(=O)=O)ccc1Nc1nc2ccc(-c3cccc(C(=O)NCC(C)(C)C)c3)cn2n1 [Example 11.078, 4-[(6-{3-[(2,2-dimethylpropyl)carbamoyl]phenyl}[1,2,4]tria-zolo[1,5-a]pyridin-2-yl)amino]-3-methoxy-N-[2-(methylsulfonyl)ethyl]benzamide]	≤ 1
CCNC(=O)c1ccc(Nc2nc3ccc(-c4cccc(C(=O)NCC(C)(C)C)c4)cn3n2)c(OC)c1 [Example 11.079, 4-[(6-{3-[(2,2-dimethylpropyl)carbamoyl]phenyl}[1,2,4]tria-zolo[1,5-a]pyridin-2-yl)amino]-N-ethyl-3-methoxybenzamide]	≤ 1
COc1cc(C(=O)NCCS(C)(=O)=O)ccc1Nc1nc2ccc(-c3cccc(C(=O)NCC(F)(F)F)c3)cn2n1 [Example 11.080, 3-methoxy-N-[2-(methylsulfonyl)ethyl]-4-[(6-{3-[(2,2,2-trifluoroethyl)carbamoyl]phenyl}[1,2,4]triazolo [1,5-a]pyridin-2-yl)amino]benzamide]	≤ 1
CCNC(=O)c1ccc(Nc2nc3ccc(-c4cccc(C(=O)NCC(F)(F)F)c4)cn3n2)c(OC)c1 [Example 11.081, N-ethyl-3-methoxy-4-[(6-{3-[(2,2,2-trifluoroethyl)carbamoyl]phenyl}[1,2,4]triazolo [1,5-a]pyridin-2-yl)amino]benzamide]	≤ 1

Other lines, results leading:

IC50 [nM]	Compound
1.23	COc1cc(C(=O)NC(C)(C)C)ccc1Nc1nc2ccc(-c3cccc(C(=O)NCC(C)(C)C)c3)cn2n1 [Example 11.082, N-tert-butyl-4-[(6-{3-[(2,2-dimethylpropyl)carbamoyl]phenyl}[1,2,4]tria-zolo[1,5-a]pyridin-2-yl)amino]-3-methoxybenzamide]
≤ 1	CCNC(=O)c1ccc(Nc2nc3ccc(-c4cccc(C(=O)NCC(F)(F)C(F)(F)F)c4)cn3n2)c(OC)c1 [Example 11.083, N-ethyl-3-methoxy-4-[(6-{3-[(2,2,3,3,3-pentafluoropropyl)carbamoyl]phenyl}[1,2,4]triazolo[1,5-a]pyridin-2-yl)amino]benzamide]
1.07	COc1cc(C(=O)NCC(F)(F)F)ccc1Nc1nc2ccc(-c3cccc(C(=O)NCC(C)(C)C)c3)cn2n1 [Example 11.084, 4-[(6-{3-[(2,2-dimethylpropyl)carbamoyl]phenyl}[1,2,4]tria-zolo[1,5-a]pyridin-2-yl)amino]-3-methoxy-N-(2,2,2-trifluoroethyl)benzamide]
≤ 1	CCOc1cc(C(=O)NCCS(C)(=O)=O)ccc1Nc1nc2ccc(-c3cccc(C(=O)NCC(C)(C)C)c3)cn2n1 [Example 11.085, 4-[(6-{3-[(2,2-dimethylpropyl)carbamoyl]phenyl}[1,2,4]tria-zolo[1,5-a]pyridin-2-yl)amino]-3-ethoxy-N-[2-(methylsulfonyl)ethyl]benzamide]
≤ 1	CCOc1cc(C(=O)NCCS(C)(=O)=O)ccc1Nc1nc2ccc(-c3cccc(C(=O)NCC(F)(F)F)c3)cn2n1 [Example 11.086, 3-ethoxy-N-[2-(methylsulfonyl)ethyl]-4-[(6-{3-[(2,2,2-trifluoroethyl)carbamoyl]phenyl}[1,2,4]triazolo [1,5-a]pyridin-2-yl)amino]benzamide]
≤ 1	CCNC(=O)c1ccc(Nc2nc3ccc(-c4cccc(C(=O)NCC(C)(C)C)c4)cn3n2)c(OCC)c1 [Example 11.087, 4-[(6-{3-[(2,2-dimethylpropyl)carbamoyl]phenyl}[1,2,4]tria-zolo[1,5-a]pyridin-2-yl)amino]-3-ethoxy-N-ethylbenzamide]
≤ 1	CCNC(=O)c1ccc(Nc2nc3ccc(-c4cccc(C(=O)NCC(F)(F)F)c4)cn3n2)c(OCC)c1 [Example 11.088, 3-ethoxy-N-ethyl-4-[(6-{3-[(2,2,2-trifluoroethyl)carbamoyl]phenyl}[1,2,4]triazolo [1,5-a]pyridin-2-yl)amino]benzamide]
1.01	CCOc1cc(C(=O)NC(C)(C)C)ccc1Nc1nc2ccc(-c3cccc(C(=O)NCC(C)(C)C)c3)cn2n1 [Example 11.089, N-tert-butyl-4-[(6-{3-[(2,2-dimethylpropyl)carbamoyl]phenyl}[1,2,4]tria-zolo[1,5-a]pyridin-2-yl)amino]-3-ethoxybenzamide]
1.62	CCOc1cc(C(=O)NC(C)(C)C)ccc1Nc1nc2ccc(-c3cccc(C(=O)NCC(F)(F)F)c3)cn2n1 [Example 11.090, N-tert-butyl-3-ethoxy-4-[(6-{3-[(2,2,2-trifluoroethyl)carbamoyl]phenyl}[1,2,4]triazolo [1,5-a]pyridin-2-yl)amino]benzamide]
≤ 1	CC(C)(C)CNC(=O)c1cccc(-c2ccc3nc(Nc4ccc(C(=O)NCCO)cc4OCC(F)(F)F)nn3c2)c1 [Example 11.091, 4-[(6-{3-[(2,2-dimethylpropyl)carbamoyl]phenyl}[1,2,4]tria-zolo[1,5-a]pyridin-2-yl)amino]-N-(2-hydroxyethyl)-3-(2,2,2-trifluoroethoxy)benzamide]
≤ 1	CC(C)(C)CNC(=O)c1cccc(-c2ccc3nc(Nc4ccc(C(=O)NC(C)(C)CO)cc4OCC(F)(F)F)nn3c2)c1 [Example 11.092, 4-[(6-{3-[(2,2-dimethylpropyl)carbamoyl]phenyl}[1,2,4]tria-zolo[1,5-a]pyridin-2-yl)amino]-N-(1-hydroxy-2-methylpropan-2-yl)-3-(2,2,2-trifluoroethoxy)benzamide]
